Reference: ChEMBL document CHEMBL4251615, “Discovery of anilino-furo[2,3-d]pyrimidine derivatives as dual inhibitors of EGFR/HER2 tyrosine kinase and their anticancer activity” (Eur J Med Chem, 2018)

What was measured:
[1] = molecular target: Epidermal growth factor receptor (Homo sapiens, UniProt P00533); test: Inhibition of recombinant human C-terminal His/N-terminal GST-tagged EGFR (668 to 1210 residues) expressed in baculovirus infected Sf9 cells at 10 uM using biotin-labeled poly[Glu:Tyr] (4:1) as substrate after 30 mins by Kinase-Glo plus luminescence assay relative to control
CCRF-CEM = test: Growth inhibition of human CCRF-CEM cells assessed as cell growth at 10 uM incubated for 48 hrs by sulforhodamine B assay relative to control; assay type: functional; details: read-out: Activity
HL-60(TB) = test: Growth inhibition of human HL-60(TB) cells assessed as cell growth at 10 uM incubated for 48 hrs by sulforhodamine B assay relative to control; assay type: functional; details: HL-60, 48 h, read-out: Activity
K562 = test: Growth inhibition of human K562 cells assessed as cell growth at 10 uM incubated for 48 hrs by sulforhodamine B assay relative to control; assay type: functional; details: K562, 48 h, read-out: Activity
MOLT-4 = test: Growth inhibition of human MOLT4 cells assessed as cell growth at 10 uM incubated for 48 hrs by sulforhodamine B assay relative to control; assay type: functional; details: MOLT-4, 48 h, read-out: Activity
SR = test: Growth inhibition of human SR cells assessed as cell growth at 10 uM incubated for 48 hrs by sulforhodamine B assay relative to control; assay type: functional; details: read-out: Activity
EKVX = test: Growth inhibition of human EKVX cells assessed as cell growth at 10 uM incubated for 48 hrs by sulforhodamine B assay relative to control; assay type: functional; details: read-out: Activity
NCI-H226 = test: Growth inhibition of human NCI-H226 cells assessed as cell growth at 10 uM incubated for 48 hrs by sulforhodamine B assay relative to control; assay type: functional; details: NCI-H226, 48 h, read-out: Activity
NCI-H23 = test: Growth inhibition of human NCI-H23 cells assessed as cell growth at 10 uM incubated for 48 hrs by sulforhodamine B assay relative to control; assay type: functional; details: NCI-H23, 48 h, read-out: Activity
NCI-H322M = test: Growth inhibition of human NCI-H322M cells assessed as cell growth at 10 uM incubated for 48 hrs by sulforhodamine B assay relative to control; assay type: functional; details: read-out: Activity
NCI-H460 = test: Growth inhibition of human NCI-H460 cells assessed as cell growth at 10 uM incubated for 48 hrs by sulforhodamine B assay relative to control; assay type: functional; details: NCI-H460, 48 h, read-out: Activity
NCI-H522 = test: Growth inhibition of human NCI-H522 cells assessed as cell growth at 10 uM incubated for 48 hrs by sulforhodamine B assay relative to control; assay type: functional; details: NCI-H522, 48 h, read-out: Activity
COLO 205 = test: Growth inhibition of human COLO205 cells assessed as cell growth at 10 uM incubated for 48 hrs by sulforhodamine B assay relative to control; assay type: functional; details: COLO 205, 48 h, read-out: Activity
HCC 2998 = test: Growth inhibition of human HCC2998 cells assessed as cell growth at 10 uM incubated for 48 hrs by sulforhodamine B assay relative to control; assay type: functional; details: HCC 2998, 48 h, read-out: Activity
HCT-15 = test: Growth inhibition of human HCT15 cells assessed as cell growth at 10 uM incubated for 48 hrs by sulforhodamine B assay relative to control; assay type: functional; details: HCT-15, 48 h, read-out: Activity
SF-268 = test: Growth inhibition of human SF268 cells assessed as cell growth at 10 uM incubated for 48 hrs by sulforhodamine B assay relative to control; assay type: functional; details: SF-268, 48 h, read-out: Activity
SF-539 = test: Growth inhibition of human SF539 cells assessed as cell growth at 10 uM incubated for 48 hrs by sulforhodamine B assay relative to control; assay type: functional; details: SF-539, 48 h, read-out: Activity
M14 = test: Growth inhibition of human M14 cells assessed as cell growth at 10 uM incubated for 48 hrs by sulforhodamine B assay relative to control; assay type: functional; details: M14, 48 h, read-out: Activity
UACC-62 = test: Growth inhibition of human UACC62 cells assessed as cell growth at 10 uM incubated for 48 hrs by sulforhodamine B assay relative to control; assay type: functional; details: UACC-62, 48 h, read-out: Activity
OVCAR-5 = test: Growth inhibition of human OVCAR5 cells assessed as cell growth at 10 uM incubated for 48 hrs by sulforhodamine B assay relative to control; assay type: functional; details: OVCAR-5, 48 h, read-out: Activity
OVCAR-8 = test: Growth inhibition of human OVCAR8 cells assessed as cell growth at 10 uM incubated for 48 hrs by sulforhodamine B assay relative to control; assay type: functional; details: OVCAR-8, 48 h, read-out: Activity
SK-OV-3 = test: Growth inhibition of human SKOV3 cells assessed as cell growth at 10 uM incubated for 48 hrs by sulforhodamine B assay relative to control; assay type: functional; details: SK-OV-3, 48 h, read-out: Activity
786-0 = test: Growth inhibition of human 786-0 cells assessed as cell growth at 10 uM incubated for 48 hrs by sulforhodamine B assay relative to control; assay type: functional; details: 786-0, 48 h, read-out: Activity
A498 = test: Growth inhibition of human A498 cells assessed as cell growth at 10 uM incubated for 48 hrs by sulforhodamine B assay relative to control; assay type: functional; details: A498, 48 h, read-out: Activity
ACHN = test: Growth inhibition of human ACHN cells assessed as cell growth at 10 uM incubated for 48 hrs by sulforhodamine B assay relative to control; assay type: functional; details: read-out: Activity
SN12C = test: Growth inhibition of human SN12C cells assessed as cell growth at 10 uM incubated for 48 hrs by sulforhodamine B assay relative to control; assay type: functional; details: read-out: Activity
UO-31 = test: Growth inhibition of human UO31 cells assessed as cell growth at 10 uM incubated for 48 hrs by sulforhodamine B assay relative to control; assay type: functional; details: UO-31, 48 h, read-out: Activity
MCF7 = test: Growth inhibition of human MCF7 cells assessed as cell growth at 10 uM incubated for 48 hrs by sulforhodamine B assay relative to control; assay type: functional; details: MCF7, 48 h, read-out: Activity
MDA-MB-231 = test: Growth inhibition of human MDA-MB-231 cells assessed as cell growth at 10 uM incubated for 48 hrs by sulforhodamine B assay relative to control; assay type: functional; details: MDA-MB-231, 48 h, read-out: Activity
Hs-578T = test: Growth inhibition of human Hs 578T cells assessed as cell growth at 10 uM incubated for 48 hrs by sulforhodamine B assay relative to control; assay type: functional; details: read-out: Activity
BT-549 = test: Growth inhibition of human BT549 cells assessed as cell growth at 10 uM incubated for 48 hrs by sulforhodamine B assay relative to control; assay type: functional; details: BT-549, 48 h, read-out: Activity
MDA-MB-468 = test: Growth inhibition of human MDA-MB-468 cells assessed as cell growth at 10 uM incubated for 48 hrs by sulforhodamine B assay relative to control; assay type: functional; details: MDA-MB-468, 48 h, read-out: Activity

Epidermal growth factor receptor, sequence (P00533 whole entry, the tested form may be a part): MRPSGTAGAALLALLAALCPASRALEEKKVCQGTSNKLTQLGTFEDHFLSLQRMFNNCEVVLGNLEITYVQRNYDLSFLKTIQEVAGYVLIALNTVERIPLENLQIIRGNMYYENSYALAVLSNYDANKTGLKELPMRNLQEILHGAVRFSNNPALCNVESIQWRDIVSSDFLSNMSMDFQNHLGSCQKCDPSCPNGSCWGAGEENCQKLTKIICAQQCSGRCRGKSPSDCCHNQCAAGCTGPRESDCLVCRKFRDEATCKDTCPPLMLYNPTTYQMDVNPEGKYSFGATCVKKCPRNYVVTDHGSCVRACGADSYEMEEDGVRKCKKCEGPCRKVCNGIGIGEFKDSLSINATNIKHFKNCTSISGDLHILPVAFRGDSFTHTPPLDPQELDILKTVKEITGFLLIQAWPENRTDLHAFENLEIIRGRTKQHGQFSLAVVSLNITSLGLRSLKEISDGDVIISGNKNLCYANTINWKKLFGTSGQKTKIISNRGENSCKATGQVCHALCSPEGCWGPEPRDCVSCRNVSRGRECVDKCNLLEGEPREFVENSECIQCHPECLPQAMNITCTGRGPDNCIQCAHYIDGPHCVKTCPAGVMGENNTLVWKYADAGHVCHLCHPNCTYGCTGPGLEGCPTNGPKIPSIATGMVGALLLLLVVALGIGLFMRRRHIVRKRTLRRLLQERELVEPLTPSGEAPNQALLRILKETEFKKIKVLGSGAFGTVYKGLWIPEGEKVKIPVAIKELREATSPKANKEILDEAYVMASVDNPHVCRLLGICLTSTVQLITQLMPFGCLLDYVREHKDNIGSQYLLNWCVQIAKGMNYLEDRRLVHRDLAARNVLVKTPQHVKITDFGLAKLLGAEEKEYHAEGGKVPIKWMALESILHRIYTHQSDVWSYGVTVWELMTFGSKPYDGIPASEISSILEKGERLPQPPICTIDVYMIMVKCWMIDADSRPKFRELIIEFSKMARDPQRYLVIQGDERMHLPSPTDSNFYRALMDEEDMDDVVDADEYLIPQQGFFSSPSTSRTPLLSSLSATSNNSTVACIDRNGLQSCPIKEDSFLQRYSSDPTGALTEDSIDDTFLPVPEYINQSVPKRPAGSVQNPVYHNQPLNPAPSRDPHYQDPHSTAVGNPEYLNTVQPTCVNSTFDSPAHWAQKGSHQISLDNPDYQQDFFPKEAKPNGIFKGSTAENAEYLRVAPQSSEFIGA

Compound | inhibition [1] [%] | growth at 10 µM (NCI-H226) [%] | growth at 10 µM (NCI-H23) [%] | growth at 10 µM (NCI-H322M) [%] | growth at 10 µM (NCI-H460) [%] | growth at 10 µM (NCI-H522) [%] | growth at 10 µM (COLO 205) [%] | growth at 10 µM (HCC 2998) [%] | growth at 10 µM (SF-268) [%] | growth at 10 µM (SF-539) [%] | growth at 10 µM (M14) [%] | growth at 10 µM (UACC-62) [%] | growth at 10 µM (OVCAR-5) [%] | growth at 10 µM (OVCAR-8) [%] | growth at 10 µM (SK-OV-3) [%] | growth at 10 µM (786-0) [%] | growth at 10 µM (A498) [%] | growth at 10 µM (ACHN) [%] | growth at 10 µM (SN12C) [%] | growth at 10 µM (UO-31) [%] | other results
Cc1oc2ncnc(Nc3cccc(F)c3)c2c1C(=O)O | 49 | 109 | 97.6 | 109 | 104 | 93.9 | 109 | 102 | 96.3 | 92.5 | 112 | 90.2 | 97.6 | 112 | 102 | 92 | 90.5 | 100 | 89.7 | 92.7 | growth at 10 µM (CCRF-CEM): 110%; growth at 10 µM (HL-60(TB)): 35.2%; growth at 10 µM (K562): 98.5%; growth at 10 µM (MOLT-4): 102%; growth at 10 µM (SR): 104%; growth at 10 µM (EKVX): 101%; growth at 10 µM (HCT-15): 101%; growth at 10 µM (MCF7): 97.6%; growth at 10 µM (MDA-MB-231): 85%; growth at 10 µM (Hs-578T): 99.9%; growth at 10 µM (BT-549): 93.9%; growth at 10 µM (MDA-MB-468): 104%
CCOC(=O)c1c(C)oc2ncnc(Nc3ccc(F)c(Cl)c3)c12 | 10 | 94.6 | 88 | 101 | 106 | 74.6 | 110 | 109 | 97.6 | 104 | 110 | 94.9 | 112 | 100 | 90.7 | 104 | 87.4 | 112 | 92.2 | 88.5 | growth at 10 µM (HL-60(TB)): 101%; growth at 10 µM (K562): 93.8%; growth at 10 µM (MOLT-4): 99.2%; growth at 10 µM (SR): 96.8%; growth at 10 µM (EKVX): 108%; growth at 10 µM (HCT-15): 112%; growth at 10 µM (MCF7): 104%; growth at 10 µM (MDA-MB-231): 101%; growth at 10 µM (Hs-578T): 97%; growth at 10 µM (BT-549): 101%; growth at 10 µM (MDA-MB-468): 112%
Cc1oc2ncnc(Nc3cccc(F)c3)c2c1C(=O)NCCO | 20 | 106 | 99.6 | 104 | 105 | 88.4 | 111 | 114 | 101 | 90.9 | 109 | 92.2 | 100 | 105 | 89.2 | 93 | 83 | 103 | 98.7 | 96.5 | growth at 10 µM (CCRF-CEM): 117%; growth at 10 µM (MDA-MB-231): 91.2%; growth at 10 µM (Hs-578T): 103%; growth at 10 µM (BT-549): 96.3%; growth at 10 µM (MDA-MB-468): 106%
CCOC(=O)c1c(C)oc2ncnc(Nc3ccc(F)cc3)c12 | 6 | 100 | 91.9 | 101 | 100 | 92.9 | 102 | 108 | 98.5 | 93.6 | 103 | 88.6 | 91.4 | 106 | 104 | 93.1 | 80.4 | 99 | 92.9 | 92.4 | growth at 10 µM (CCRF-CEM): 31.3%; growth at 10 µM (MDA-MB-231): 86.8%; growth at 10 µM (Hs-578T): 96.1%; growth at 10 µM (BT-549): 98.5%; growth at 10 µM (MDA-MB-468): 103%
